According to US10093713B2, “GIP-GLP-1 dual agonist compounds and methods” (priority 2013, dated 2018):
Like-named read-outs stand apart in the source and are kept apart here. *1 amine or outer side, *2 acyl side, *3 side chain or, on linkers, in order; H or OH if unused. Where a SMILES comes first, the peptide text is derived from it. Side-chain parts run from the residue outwards. [ ]: non-standard residue; d: D form. The star is where a group is joined. C20 diacid = O=C(O)CCCCCCCCCCCCCCCCCCC(=O)*; C18 diacid = O=C(O)CCCCCCCCCCCCCCCCC(=O)*; γGlu = O=C(O)[C@H](CCC(=O)[*:2])N[*:1]; AEEA = NCCOCCOCC(=O)O; Aib = CC(C)(N)C(=O)O

Columns and labels:
human GIP R = target: T1, human GIP R (Homo sapiens, UniProt P48546); experiment: Human GIP receptor (GIP R) activity assay, cAMP induction (AlphaScreen) in HEK293 cells; assay type: cell-based; details: read-out: hGIP-R cAMP EC50 average value
T1 construct: expressed in transfected cells
T1 sequence (P48546 22-466): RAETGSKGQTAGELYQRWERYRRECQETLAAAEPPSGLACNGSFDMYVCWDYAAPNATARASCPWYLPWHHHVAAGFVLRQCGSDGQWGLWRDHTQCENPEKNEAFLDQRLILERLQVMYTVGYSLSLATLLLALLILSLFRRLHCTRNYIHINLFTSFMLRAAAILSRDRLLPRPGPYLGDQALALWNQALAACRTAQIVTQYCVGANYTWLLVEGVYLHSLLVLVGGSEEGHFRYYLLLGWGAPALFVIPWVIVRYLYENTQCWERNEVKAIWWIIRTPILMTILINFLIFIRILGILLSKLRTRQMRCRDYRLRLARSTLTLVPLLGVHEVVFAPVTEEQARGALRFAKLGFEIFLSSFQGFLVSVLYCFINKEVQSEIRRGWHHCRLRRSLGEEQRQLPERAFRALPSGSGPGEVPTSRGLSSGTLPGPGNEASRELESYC
Method in brief: (§1)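 Stable HEK293 clones expressing human GIP R or GLP-1 R, seeded 1 day before; cells washed in Tyrode's buffer (10 mM HEPES, pH 7.4), stimulated, then lysed. cAMP measured by AlphaScreen bead competition (1 h, room temperature, dark). EC50 = concentration giving half-maximal cAMP elevation, from curves of absolute cAMP (nM) vs log concentration.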

human GLP-1 R = target: T2, human GLP-1 R (Homo sapiens, UniProt P43220); experiment: Human GLP-1 receptor (GLP-1 R) activity assay, cAMP induction (AlphaScreen) in HEK293 cells; assay type: cell-based
T2 construct: expressed in transfected cells
Method in brief: as §1

[1] = Table 2, HEK293 cells expressing human GIP R
[2] = Table 3, most comprehensive data
[3] = Table 2, HEK293 cells expressing human GLP-1 R, read-out: hGLP1-R cAMP EC50 average value
[4] = Table 3, most comprehensive data, read-out: hGLP-1-R cAMP EC50 average value
[5] = Table 2a, secondary assay study
[6] = Table 2a, secondary assay study, read-out: hGLP1-R cAMP EC50 average value

T2 sequence (P43220 24-463): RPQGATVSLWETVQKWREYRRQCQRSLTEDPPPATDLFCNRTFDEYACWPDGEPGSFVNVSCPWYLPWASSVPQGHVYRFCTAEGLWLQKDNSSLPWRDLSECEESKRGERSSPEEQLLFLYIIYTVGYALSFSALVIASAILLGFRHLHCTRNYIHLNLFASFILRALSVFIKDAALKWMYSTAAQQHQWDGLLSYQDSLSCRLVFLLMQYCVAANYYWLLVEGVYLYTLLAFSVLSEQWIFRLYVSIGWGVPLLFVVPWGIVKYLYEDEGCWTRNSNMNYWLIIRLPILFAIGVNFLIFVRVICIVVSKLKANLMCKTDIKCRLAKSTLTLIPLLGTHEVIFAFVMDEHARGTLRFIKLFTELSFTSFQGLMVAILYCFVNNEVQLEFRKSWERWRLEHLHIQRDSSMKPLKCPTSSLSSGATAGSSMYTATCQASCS

Row | Compound | EC50 (human GIP R; [1]) | EC50 (human GIP R; [2]) | EC50 (human GLP-1 R; [3]) | EC50 (human GLP-1 R; [4]) | EC50 (human GIP R; [5]) | EC50 (human GLP-1 R; [6])
1 | CC[C@H](C)[C@H](NC(=O)[C@H](CO)NC(=O)[C@H](Cc1ccc(O)cc1)NC(=O)[C@H](CC(=O)O)NC(=O)[C@H](CO)NC(=O)[C@@H](NC(=O)[C@H](Cc1ccccc1)NC(=O)[C@@H](NC(=O)CNC(=O)[C@H](CCC(=O)O)NC(=O)C(C)(C)NC(=O)[C@@H](N)Cc1ccc(O)cc1)[C@@H](C)O)[C@@H](C)O)C(=O)N[C@@H](C)C(=O)N[C@@H](CC(C)C)C(=O)N[C@@H](CCC(=O)O)C(=O)N[C@@H](CCCCN)C(=O)N[C@@H](CCCCNC(=O)COCCOCCNC(=O)COCCOCCNC(=O)CC[C@H](NC(=O)CCCCCCCCCCCCCCCCCCC(=O)O)C(=O)O)C(=O)N[C@@H](C)C(=O)N[C@@H](CCC(N)=O)C(=O)N[C@@H](CCCNC(=N)N)C(=O)N[C@@H](C)C(=O)N[C@@H](Cc1ccccc1)C(=O)N[C@H](C(=O)N[C@@H](CCC(=O)O)C(=O)N[C@@H](Cc1c[nH]c2ccccc12)C(=O)N[C@@H](CC(C)C)C(=O)N[C@@H](CC(C)C)C(=O)N[C@@H](C)C(=O)N[C@@H](CCC(N)=O)C(=O)N[C@@H](CCCCN)C(N)=O)C(C)C [Compound 25] (H-Y[Aib]EGTFTSDYSIALEKK([AEEA-AEEA-γGlu-C20 diacid])AQRAFVEWLLAQK-NH2) | 0.009 nM | 0.009 nM | 0.011 nM | – | – | –
2 | CC[C@H](C)[C@H](NC(=O)[C@H](CO)NC(=O)[C@H](Cc1ccc(O)cc1)NC(=O)[C@H](CC(=O)O)NC(=O)[C@H](CO)NC(=O)[C@@H](NC(=O)[C@H](Cc1ccccc1)NC(=O)[C@@H](NC(=O)CNC(=O)[C@H](CCC(=O)O)NC(=O)C(C)(C)NC(=O)[C@@H](N)Cc1ccc(O)cc1)[C@@H](C)O)[C@@H](C)O)C(=O)N[C@@H](C)C(=O)N[C@@H](CC(C)C)C(=O)N[C@@H](CC(=O)O)C(=O)N[C@@H](CCC(=O)O)C(=O)N[C@@H](CCCCNC(=O)COCCOCCNC(=O)COCCOCCNC(=O)CC[C@H](NC(=O)CCCCCCCCCCCCCCCCCCC(=O)O)C(=O)O)C(=O)N[C@@H](C)C(=O)N[C@@H](CCC(N)=O)C(=O)N[C@@H](CCCNC(=N)N)C(=O)N[C@@H](C)C(=O)N[C@@H](Cc1ccccc1)C(=O)N[C@H](C(=O)N[C@@H](CCC(=O)O)C(=O)N[C@@H](Cc1c[nH]c2ccccc12)C(=O)N[C@@H](CC(C)C)C(=O)N[C@@H](CC(C)C)C(=O)N[C@@H](C)C(=O)N[C@@H](CCC(N)=O)C(=O)NCC(=O)N1CCC[C@H]1C(=O)N[C@@H](CO)C(=O)N[C@@H](CO)C(=O)NCC(=O)N[C@@H](C)C(=O)N1CCC[C@H]1C(=O)N1CCC[C@H]1C(=O)N1CCC[C@H]1C(=O)N[C@@H](CO)C(N)=O)C(C)C [Compound 43] (H-Y[Aib]EGTFTSDYSIALDEK([AEEA-AEEA-γGlu-C20 diacid])AQRAFVEWLLAQGPSSGAPPPS-NH2) | – | 0.005 nM | – | 0.016 nM | – | –
3 | CC[C@H](C)[C@H](NC(=O)[C@H](CO)NC(=O)[C@H](Cc1ccc(O)cc1)NC(=O)[C@H](CC(=O)O)NC(=O)[C@H](CO)NC(=O)[C@@H](NC(=O)[C@H](Cc1ccccc1)NC(=O)[C@@H](NC(=O)CNC(=O)[C@H](CCC(=O)O)NC(=O)[C@@H](C)NC(=O)[C@@H](N)Cc1ccc(O)cc1)[C@@H](C)O)[C@@H](C)O)C(=O)N[C@@H](Cc1ccc(O)cc1)C(=O)N[C@@H](CC(C)C)C(=O)N[C@@H](CC(=O)O)C(=O)N[C@@H](CCCCN)C(=O)N[C@@H](CCCCNC(=O)COCCOCCNC(=O)COCCOCCNC(=O)CC[C@H](NC(=O)CCCCCCCCCCCCCCCCC(=O)O)C(=O)O)C(=O)N[C@@H](C)C(=O)N[C@@H](CCC(N)=O)C(=O)N[C@@H](CCCNC(=N)N)C(=O)N[C@@H](C)C(=O)N[C@@H](Cc1ccccc1)C(=O)N[C@H](C(=O)N[C@@H](CCC(=O)O)C(=O)N[C@@H](Cc1c[nH]c2ccccc12)C(=O)N[C@@H](CC(C)C)C(=O)N[C@@H](CC(C)C)C(=O)N[C@@H](C)C(=O)N[C@@H](CCC(N)=O)C(=O)NCC(=O)N1CCC[C@H]1C(=O)N[C@@H](CO)C(=O)N[C@@H](CO)C(=O)NCC(=O)N[C@@H](C)C(=O)N1CCC[C@H]1C(=O)N1CCC[C@H]1C(=O)N1CCC[C@H]1C(=O)N[C@@H](CO)C(N)=O)C(C)C [Compound 9] (H-Y[dA]EGTFTSDYSIYLDKK([AEEA-AEEA-γGlu-C18 diacid])AQRAFVEWLLAQGPSSGAPPPS-NH2) | 0.0088 nM | 0.009 nM | 0.038 nM | – | 0.009 nM | 0.039 nM
4 | CC[C@H](C)[C@H](NC(=O)[C@H](CO)NC(=O)[C@H](Cc1ccc(O)cc1)NC(=O)[C@H](CC(=O)O)NC(=O)[C@H](CO)NC(=O)[C@@H](NC(=O)[C@H](Cc1ccccc1)NC(=O)[C@@H](NC(=O)CNC(=O)[C@H](CCC(=O)O)NC(=O)C(C)(C)NC(=O)[C@@H](N)Cc1ccc(O)cc1)[C@@H](C)O)[C@@H](C)O)C(=O)N[C@@H](C)C(=O)N[C@@H](CC(C)C)C(=O)N[C@@H](CC(=O)O)C(=O)N[C@@H](CCC(=O)O)C(=O)N[C@@H](CCCCNC(=O)COCCOCCNC(=O)COCCOCCNC(=O)CC[C@H](NC(=O)CCCCCCCCCCCCCCCCCCC(=O)O)C(=O)O)C(=O)N[C@@H](C)C(=O)N[C@@H](CCC(N)=O)C(=O)N[C@@H](CCCNC(=N)N)C(=O)N[C@@H](C)C(=O)N[C@@H](Cc1ccccc1)C(=O)N[C@H](C(=O)N[C@@H](CCC(=O)O)C(=O)N[C@@H](Cc1c[nH]c2ccccc12)C(=O)N[C@@H](CC(C)C)C(=O)N[C@@H](CC(C)C)C(=O)N[C@@H](C)C(=O)N[C@@H](C)C(=O)NCC(=O)N1CCC[C@H]1C(=O)N[C@@H](CO)C(=O)N[C@@H](CO)C(=O)NCC(=O)N[C@@H](C)C(=O)N1CCC[C@H]1C(=O)N1CCC[C@H]1C(=O)N1CCC[C@H]1C(=O)N[C@@H](CO)C(N)=O)C(C)C [Compound 44] (H-Y[Aib]EGTFTSDYSIALDEK([AEEA-AEEA-γGlu-C20 diacid])AQRAFVEWLLAAGPSSGAPPPS-NH2) | – | 0.007 nM | – | 0.015 nM | – | –
5 | CC[C@H](C)[C@H](NC(=O)[C@H](CO)NC(=O)[C@H](Cc1ccc(O)cc1)NC(=O)[C@H](CC(=O)O)NC(=O)[C@H](CO)NC(=O)[C@@H](NC(=O)[C@H](Cc1ccccc1)NC(=O)[C@@H](NC(=O)CNC(=O)[C@H](CCC(=O)O)NC(=O)C(C)(C)NC(=O)[C@@H](N)Cc1ccc(O)cc1)[C@@H](C)O)[C@@H](C)O)C(=O)N[C@@H](Cc1ccc(O)cc1)C(=O)N[C@@H](CC(C)C)C(=O)N[C@@H](CCC(=O)O)C(=O)N[C@@H](CCCCN)C(=O)N[C@@H](CCCCNC(=O)COCCOCCNC(=O)COCCOCCNC(=O)CC[C@H](NC(=O)CCCCCCCCCCCCCCCCC(=O)O)C(=O)O)C(=O)N[C@@H](C)C(=O)N[C@@H](C)C(=O)N[C@@H](CCCCN)C(=O)N[C@@H](CCC(=O)O)C(=O)N[C@@H](Cc1ccccc1)C(=O)N[C@H](C(=O)N[C@@H](CCC(=O)O)C(=O)N[C@@H](Cc1c[nH]c2ccccc12)C(=O)N[C@@H](CC(C)C)C(=O)N[C@@H](CC(C)C)C(=O)N[C@@H](CO)C(=O)N[C@@H](C)C(=O)NCC(=O)N1CCC[C@H]1C(=O)N[C@@H](CO)C(=O)N[C@@H](CO)C(=O)NCC(=O)N[C@@H](C)C(=O)N1CCC[C@H]1C(=O)N1CCC[C@H]1C(=O)N1CCC[C@H]1C(=O)N[C@@H](CO)C(N)=O)C(C)C [Compound 10] (H-Y[Aib]EGTFTSDYSIYLEKK([AEEA-AEEA-γGlu-C18 diacid])AAKEFVEWLLSAGPSSGAPPPS-NH2) | 0.016 nM | – | 0.028 nM | – | 0.016 nM | 0.029 nM
6 | CC[C@H](C)[C@H](NC(=O)[C@H](CO)NC(=O)[C@H](Cc1ccc(O)cc1)NC(=O)[C@H](CC(=O)O)NC(=O)[C@H](CO)NC(=O)[C@@H](NC(=O)[C@H](Cc1ccccc1)NC(=O)[C@@H](NC(=O)CNC(=O)[C@H](CCC(=O)O)NC(=O)C(C)(C)NC(=O)[C@@H](N)Cc1ccc(O)cc1)[C@@H](C)O)[C@@H](C)O)C(=O)N[C@@H](Cc1ccc(O)cc1)C(=O)N[C@@H](CC(C)C)C(=O)N[C@@H](CCC(=O)O)C(=O)N[C@@H](CCCCN)C(=O)N[C@@H](CCCCNC(=O)COCCOCCNC(=O)COCCOCCNC(=O)CC[C@H](NC(=O)CCCCCCCCCCCCCCCCC(=O)O)C(=O)O)C(=O)N[C@@H](C)C(=O)N[C@@H](CCC(N)=O)C(=O)N[C@@H](CCCNC(=N)N)C(=O)N[C@@H](C)C(=O)N[C@@H](Cc1ccccc1)C(=O)N[C@H](C(=O)N[C@@H](CCC(=O)O)C(=O)N[C@@H](Cc1c[nH]c2ccccc12)C(=O)N[C@@H](CC(C)C)C(=O)N[C@@H](CC(C)C)C(=O)N[C@@H](CCCNC(=N)N)C(=O)N[C@@H](C)C(N)=O)C(C)C [Compound 19] (H-Y[Aib]EGTFTSDYSIYLEKK([AEEA-AEEA-γGlu-C18 diacid])AQRAFVEWLLRA-NH2) | – | – | – | – | 0.014 nM | 0.022 nM
